Experimental data from patent US10406136B2 (priority 2013, dated 2019).

Columns and labels:
[1] = target: T1, neuraminidase (EC. 3.2.1.8, C. perfringens, SIGMA, N2876) (Clostridium perfringens, UniProt A0A0H2YQR1); type: biochemical; settings: Lineweaver-Burk and Dixon plots
[2] = target: T1, neuraminidase (EC. 3.2.1.8, C. perfringens, SIGMA, N2876); type: biochemical

T1 sequence (A0A0H2YQR1 1-694): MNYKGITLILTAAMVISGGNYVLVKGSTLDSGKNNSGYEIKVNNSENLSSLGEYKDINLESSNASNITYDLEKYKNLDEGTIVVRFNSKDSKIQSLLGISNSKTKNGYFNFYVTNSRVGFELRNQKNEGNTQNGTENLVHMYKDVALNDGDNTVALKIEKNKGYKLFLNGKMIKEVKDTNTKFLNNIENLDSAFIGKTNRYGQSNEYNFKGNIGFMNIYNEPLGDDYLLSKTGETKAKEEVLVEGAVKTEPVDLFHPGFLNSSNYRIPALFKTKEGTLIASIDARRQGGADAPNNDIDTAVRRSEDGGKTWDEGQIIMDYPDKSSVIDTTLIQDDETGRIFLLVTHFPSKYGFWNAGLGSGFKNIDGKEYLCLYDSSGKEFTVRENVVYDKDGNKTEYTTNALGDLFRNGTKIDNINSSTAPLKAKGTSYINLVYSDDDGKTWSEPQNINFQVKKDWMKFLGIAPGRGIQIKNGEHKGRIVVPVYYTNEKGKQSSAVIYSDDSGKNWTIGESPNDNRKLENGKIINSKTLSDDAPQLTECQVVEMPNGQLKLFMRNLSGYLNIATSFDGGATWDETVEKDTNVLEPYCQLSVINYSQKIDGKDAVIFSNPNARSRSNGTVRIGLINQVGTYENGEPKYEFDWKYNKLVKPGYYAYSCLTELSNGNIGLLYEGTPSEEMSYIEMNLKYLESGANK

| SMILES | Inhibition (type) [1] | IC50 [2] [µM] |
| --- | --- | --- |
| COc1cc(C2Oc3cc(O)c(C/C=C(\C)CCC=C(C)C)c(O)c3C(=O)[C@@H]2O)ccc1O (stereo partly shown) [Compound 1, 3′-O-methyldiplacol] | Competitive | – |
| COc1ccc(C2Oc3cc(O)c(C/C=C(\C)CCC=C(C)C)c(O)c3C(=O)[C@@H]2O)cc1O (stereo partly shown) [Compound 2, 4′-O-methyldiplacol] | Competitive | – |
| COc1cc(C2CC(=O)c3c(cc(O)c(C/C=C(\C)CCC=C(C)C)c3O)O2)ccc1O (stereo not shown) [Compound 4, 3′-O-methyldiplacone] | Competitive | – |
| COc1ccc(C2CC(=O)c3c(cc(O)c(C/C=C(\C)CCC=C(C)C)c3O)O2)cc1O (stereo not shown) [Compound 5, 4′-O-methyldiplacone] | Competitive | 12.9 ± 0.4 |
| COc1c(O)cc(C2CC(=O)c3c(cc(O)c(C/C=C(\C)CCC=C(C)C)c3O)O2)cc1O (stereo not shown) [Compound 6, 6-geranyl-3′,5,5′,7-tetrahydroxy-4′-methoxyflavanone] | Competitive | – |
| CC(C)=CCC/C(C)=C/Cc1c(O)cc2c(c1O)C(=O)CC(c1ccc(O)cc1)O2 (stereo not shown) [Compound 7, mimulone] | Competitive | – |
| CC(C)=CCC/C(C)=C/Cc1c(O)cc2c(c1O)C(=O)CC(c1ccc(O)c(O)c1)O2 (stereo not shown) [Compound 8, diplacone] | Competitive | 0.11 ± 0.003 |
| COc1cc(C2CC(=O)c3c(cc(O)c(C/C=C(\C)CCC=C(C)C)c3O)O2)cc(OC)c1O (stereo not shown) [Compound 9, 6-geranyl-4′,5,7-trihydroxy-3′,5′-dimethoxyflavanone] | Competitive | – |
